The record followed here is patent US5110808A, “Amide derivatives, compositions and use” (Imperial Chemical Industries, PLC, priority 1990, dated 1992).

Each structure is given as a SMILES string. pIC50: −log10 of the molar value.

Test [1] relates to aldose reductase. The test can be described thus: Reduction of sciatic nerve sorbitol in streptozotocin-diabetic rats (inhibition of aldose reductase in vivo). The settings on record: after 5 daily oral doses of 3 mg/kg. More on the design: species or system rat. How it is done:
Rats are made diabetic (as evidenced by severe glucosuria being present) by dosing with streptozotocin. The animals are then dosed daily with the test compound for one, two or five days. The animals are then sacrificed 2-6 hours after the final dose and the eye lenses and/or sciatic nerves are removed. After a standard work-up procedure the residual sorbitol levels in each tissue are determined by gas liquid chromatography after conversion to the polytrimethylsilyl derivatives. Inhibition of aldose reductase in vivo can then be assessed by comparing the residual sorbitol levels in tissues from the dosed diabetic group of rats with those of an undosed group of diabetic rats and an undosed, normal group of rats.
In a variation of the above test diabetic rats are dosed at a fixed daily oral dose for five days and then sacrificed 6 hours aftre the final dose and the reduction of sciatic nerve sorbitol assessed relative to that in control animals.

For test [2], the target named is T1, aldose reductase (Bos taurus, UniProt P16116).
T1 construct: partially purified aldose reductase is isolated in known manner from bovine lenses; from tissue; host or cells: bovine lens
The test can be described thus: In vitro inhibition of partially purified aldose reductase from bovine lenses, spectrophotometric. It counts as biochemical. An excerpt: Thus, in a standard procedure partially purified aldose reductase is isolated in known manner from bovine lenses. The percentage inhibition of this enzyme's ability in vitro to catalyse the reduction of aldoses to polyhydric alcohols, and particularly to reduce glucose to sorbitol, caused by a test compound can then be determined using standard spectrophotometric methods.

In general, pIC50 refers to −log10 of the IC50, conventionally taken in molar units. Low values mean a high IC50, high ones a low IC50. On to `Cc1cc(NC(=O)C(=O)N(C(C)C)C(C)C)cc(C)c1S(=O)(=O)C[N+](=O)[O-]` [Example 2, N,N-di-isopropyl-N'-[3,5-dimethyl-4-(nitromethylsulfonyl)phenyl]oxamide], for which the “reduction in sciatic nerve sorbitol levels” value in test [1] was 82%. Further, the negative logarithm of the IC50 (pIC50) in test [2] is approximately 7.22.
